Assay results as given in article PMC11251039, “Harnessing cholesterol uptake of malaria parasites for therapeutic applications” (EMBO Molecular Medicine, 2024).
Several values for one entry are separate records, joined by “and”; a condition that tells them apart may be missing. Equal entries are not always repeated.

Tested on: P. falciparum CAM3.II ring stages (0–3 h post invasion)
Assay: Plasmodium falciparum ring stage survival assay, resistant strain
Type: cell-based
Procedure: Following tight synchronisation using sorbitol and Percoll® floatation, ring stage CAM3.II and CAM3.IIREV parasites (0–3 h post invasion) at 1% parasitaemia and 2% haematocrit were incubated with 700 nM of compounds or solvent-only controls for exactly 6 h, before removing the drug, thoroughly washing in RPMI with HEPES, and returning to culture conditions for a further 66 h. Some cells were treated with 700 nM artesunate for 72 h as a no-growth control. DNA replication (indicating growth) was measured at the specified time using SYBR Safe DNA Stain. Microscope slide smears of each condition were stained with 10% v/v Giemsa and examined under a light microscope (×1000 magnification); with ‘viable’ (morphologically normal) and ‘non-viable’ (morphologically aberrant; vacuolated or pyknotic) parasites distinguished according to standard protocol (Witkowski et al, [2013]). Images were captured using a Leica ICC50 camera, with a resolution of 76 nm per pixel, and cropped from larger images using Fiji ImageJ.
Appendix Fraser/Curtis et al.
Cells were detached from a flask using 0.25% Trypsin with 0.2 g/L EDTA (Sigma T4049) and washed with culture media containing no phenol red. Cells were incubated with a serial dilution of each compound, or media/DMSO alone. The protein synthesis inhibitor cycloheximide (Sigma 01810) at 10 µg/mL was used as a positive control to determine background absorbance. 5,000 cells were seeded in each well. After 96 hours, 0.45 mg/mL methylthiazolyldiphenyl-tetrazolium bromide (MTT; Sigma M2128) was added and incubated for a further two hours, before mixing 1.1:1 with 10% w/v sodium dodecyl sulfate (SDS) to solubilise crystals and freezing the plate at -18 °C to stop the assay. Plates were defrosted at room temperature and absorbance was read at 570 nm in an Infinite M1000 pro plate reader […]
Plasmodium falciparum Ring Stage Survival Assay
Ring stage survival assays were conducted according to standard protocols with some modifications (27, 28). CAM3.11 and CAM3.11REV parasites were sorbitol synchronised twice, 12 hours apart, and then incubated for a further 30 hours until the majority of the parasites were mature schizonts (with clearly separated nuclei). Pelleted RBCs were incubated at 37 °C with heparinised RPMI for 15 minutes, and then centrifuged over 75% Percoll® in PBS for 15 minutes at 1,000 g. Mature schizonts were collected, washed with warm RPMI, and cultured for exactly three hours with fresh uRBCs and culture media. After 3 hours, the cultures were sorbitol synchronised and incubated in duplicate with 700 nM of artesunate, PAYb076a, GGA5, HJB8a53, a DMSO solvent-only control or media alone for exactly six hours, before removing the drug, washing in RPMI, and returning to culture conditions. Samples of each cell suspension were transferred to a -18 °C freezer at the start of the assay (time = 0) or treated for the entire 72 hours with 700 nM artesunate to determine background fluorescence under no-growth conditions. After a further 66 hours of incubation (totalling 72 hours), cells were […]
resuspended, and a sample from each well was transferred to a fresh plate and frozen at -18 °C.
Microscope slide smears were made using the remaining cells and stained with 10% v/v Giemsa. Plates were thawed and SYBR Safe DNA Gel Stain (final concentration 1/10,000) diluted in lysis buffer (as above) was added for DNA detection at 490 nm excitation / 520 nm emission on a FLUOstar Optima fluorescence plate reader. Parasite proliferation and viability were also assessed using Giemsa-stained smears examined under a light microscope (1,000× magnification); with ‘viable’ and ‘non-viable’ (vacuolated or pyknotic) parasites distinguished according to standard protocol. Images were captured using a Leica ICC50 camera, with a resolution of 76 nm per pixel.
Growth inhibition data were normalised by subtracting background fluorescence, […]

Question: What does the source list for CC(C)OC(=O)CCC(=O)O[C@H]1CC[C@H]2[C@@H]3CC=C4C[C@@H](O)CC[C@]4(C)[C@H]3CC[C@]12C [C-17-link]?
Answer: Ring stage survival, growth (700 nM, 6 h treatment, 66 h further growth, CAM3.II resistant): did not significantly impact the growth; Ring stage survival, individual data points (Figure 4C) (CAM3.11, replicate experiments, listed as HJB8a53): 67.82 and 103.7 and 86.39 and 70.09
